Measured values as given in publication PMC12624316, “Studies of α′,β′‐Epoxyketone Synthesis by Small‐Molecule Flavins and Flavoenzymes” (Angewandte Chemie (International Ed. in English), 2025).

Molecular target: T1, EpxF (Goodfellowiella coeruleoviolacea, UniProt V5RNC8)
T1 construct: expressed in Escherichia coli; homodimer; residues 253-264 and 336-346 not defined in the density
T1 sequence (V5RNC8 2-563): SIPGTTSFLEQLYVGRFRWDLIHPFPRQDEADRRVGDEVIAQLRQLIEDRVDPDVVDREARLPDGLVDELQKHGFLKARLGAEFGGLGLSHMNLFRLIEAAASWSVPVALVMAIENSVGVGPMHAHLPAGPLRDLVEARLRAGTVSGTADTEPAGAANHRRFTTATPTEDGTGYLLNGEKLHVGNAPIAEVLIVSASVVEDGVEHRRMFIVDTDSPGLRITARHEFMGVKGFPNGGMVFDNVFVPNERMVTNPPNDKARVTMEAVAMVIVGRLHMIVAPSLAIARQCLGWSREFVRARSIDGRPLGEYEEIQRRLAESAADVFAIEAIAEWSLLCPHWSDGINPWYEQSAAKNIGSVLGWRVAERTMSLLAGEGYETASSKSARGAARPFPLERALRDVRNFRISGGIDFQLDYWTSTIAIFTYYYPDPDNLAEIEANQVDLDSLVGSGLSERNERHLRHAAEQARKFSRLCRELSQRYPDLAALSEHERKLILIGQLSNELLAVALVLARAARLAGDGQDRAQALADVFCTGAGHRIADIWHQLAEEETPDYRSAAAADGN
Test: X-ray crystal structure, […] Å
Type: binding
Conditions: FAD bound in both subunits of the homodimer, adenine anchored in the dimer interface

With `Cc1cc2nc3c(=O)[nH]c(=O)nc-3n(C[C@H](O)[C@H](O)[C@H](O)COP(=O)(O)OP(=O)(O)OC[C@H]3O[C@@H](n4cnc5c(N)ncnc54)[C@H](O)[C@@H]3O)c2cc1C` [FAD] the “X-ray crystal structure, 2.4 Å” value was “electron density map depicts FAD bound at two distinct catalytic centers”.
